From PMC6027146, “Synthesis and Structure-Activity Relationships of (−)-cis-N-Normetazocine-Based LP1 Derivatives” (Pharmaceuticals, 2018)

What was measured:
[1] = molecular target: T1, rat-MOR (Rattus norvegicus, UniProt P33535); experiment: Radioligand competition binding, [3H]-DPN, HEK293 membranes, MOR; conditions: [3H]-DPN displacement; means ± SEM of three experiments in duplicate; read-out: Ki (μM) ± SEM MOR
T1 construct: expressed in transfected cells
Experimental: (§1) All synthesized compounds were tested in vitro by radioligand competition binding using [^3H]-diprenorphine ([^3H]-DPN) to measure the affinity for opioid receptor subtypes in membranes from HEK293 cells stably expressing either MOR, DOR, or KOR, as previously described.
(§2) Confluent monolayers of HEK293 (human embryonic kidney 293) cells stably expressing rat-MOR, rat-DOR, or human-KOR were harvested, collected by centrifugation at 1500 rpm for 5 min, and washed once with phosphate-buffered saline (PBS) at pH 7.5. Membranes from cell pellets were carried out as described by Georgoussi and Zioudrou (1993) and Papakonstantinou et al. (2015). Briefly, cell pellets were resuspended in ice-cold membrane buffer (10 mM Tris-HCl, pH 7.5 and 0.1 mM EDTA), homogenized, and centrifuged at 2,000 g for 3 min at 4 °C. Supernatants were further centrifuged at 45,000 rpm for 30 min at 4 °C. The membrane pellet was resuspended in ice-cold membrane buffer at a protein concentration of approximately 1 mg/mL and stored in aliquots at −70 °C. Protein concentration was determined according to Bradford assay.
(§3) In the experiments designed to define compound affinity and selectivity for MOR, DOR, and KOR, membranes expressing each of these opioid receptors ([…]) were incubated at 30 °C for 45 min in buffer containing 50 mM Tris-HCl, pH 7.5, 100 mM NaCl, and 10 mM MgCl2 as described by Georgoussi et al. […] The ability of compounds 10–16 to displace [^3H]-DPN (3.75 nM) binding to the opioid receptors was assessed as described by Morou And Georgoussi (2005). Non-specific binding was measured in the presence of […] Naloxone. The reaction was stopped by rapid filtration and three washes in ice-cold 50 mM Tris-HCl, pH 7.4, through GF/C filters (Whatman, Maidstone, UK) using an automated cell harvester (Brandel Inc., Gaithersburg, MD, USA). The radioactivity was measured by liquid scintillation counting (Liquid Scintillation Analyzer, Packard).
(§4) Analysis of the binding data was performed using the Origin 7.5 software (OriginLab Corporation, Northampton, MA, USA). In calcium mobilization experiments, data were analyzed by non-linear curve fitting equation, using GraphPad 5.0 software. […] Ligand efficacy was expressed as intrinsic activity (α), calculated as the ratio between the Emax of the ligand and that of the respective standards. Calcium mobilization data were expressed as FIU (fluorescence intensity units) in percent, over the baseline. Agonist potencies are given as pEC50 (the negative logarithm to base 10 of the molar concentration of an agonist that produces 50% of the maximal possible effect, Emax). Concentration response curves to agonists were fitted with the following equation: Effect = baseline + (Emax − baseline)/(1+10^(LogEC50 − X) ∗ HillSlope) where X is the agonist concentration.

[2] = molecular target: T2, rat-DOR (Rattus norvegicus, UniProt P33533); experiment: Radioligand competition binding, [3H]-DPN, HEK293 membranes, DOR; conditions: [3H]-DPN displacement; means ± SEM of three experiments in duplicate; read-out: Ki (μM) ± SEM DOR
T2 construct: expressed in transfected cells
Experimental: as §1, §2, §3, §4

[3] = molecular target: T3, recombinant human MOR (Homo sapiens, UniProt P35372); experiment: Calcium mobilization assay, CHO-MOR cells expressing Gαqi5; format: cell-based
T3 construct: expressed in transfected cells; gift of Dr. Larry Toll (SRI International); infected with a retrovirus for Gαqi5

[4] = test system: cells expressing the GαqG66Di5 chimeric protein, but not DOR; experiment: Calcium mobilization in cells expressing the GαqG66Di5 chimeric protein, but not DOR; format: cell-based; conditions: up to 10 μM; data not shown
From the text: The LP1 functional profile at DOR, previously in vitro detected by adenylyl cyclase, and the [^35S]GTPγS binding assays was controversial. […] Similar findings with DOR spontaneous activity and effects of DOR antagonists have been previously described. This effect was reversed at higher LP1 concentrations. These [^35S]GTPγS binding results reveal the role of LP1 as a DOR antagonist ligand. […] The DOR antagonist profile of LP1 was also detected in vivo by rat tail flick test. […] The remaining LP1 derivatives 11–16 were not able to stimulate calcium mobilization in CHO^DOR cells stably expressing the GαqG66Di5 protein. […]
CHO cells, expressing human opioid receptors and the Gαqi5 protein, and CHODOR, expressing the GαqG66Di5 protein, were maintained in culture medium consisting of Dulbecco minimum essential medium (DMEM) and Ham F-12 (1:1) (50/50) supplemented with 10% fetal calf serum (FCS), L-glutamine (2 mM), geneticin (200 μg/mL; G418), hygromycin B (100 μg/mL) at 37 °C in 5% CO2 humidified air. […] After placing both plates (cell culture and compound plate) into the FlexStation II (Molecular Device, Union City, San Jose, CA 94587, USA), fluorescence changes were measured at room temperature. […] Maximum change in fluorescence, expressed in percent of baseline fluorescence, was used to determine agonist response.

[5] = test system: DOR; parameters: method as in PMID 22100511; conditions: 10 nM; cited from earlier work
[6] = molecular target: human-KOR (Homo sapiens, UniProt P41145); experiment: Radioligand competition binding, [3H]-DPN, HEK293 membranes, KOR; parameters: expressed in transfected cells; conditions: [3H]-DPN displacement; means ± SEM of three experiments in duplicate; read-out: Ki (μM) ± SEM KOR
Experimental: as §1, §2, §3, §4

Which Ki [1] does the source give for `C[C@H]1[C@H]2Cc3ccc(O)cc3[C@]1(C)CCN2CCC(=O)Nc1ccccc1` [LP1, 3-[(2R,6R,11R)-8-hydroxy-6,11-dimethyl-1,4,5,6-tetrahydro-2,6-methano-3-benzazocin-3(2H)-yl]-N-phenylpropanamide, reference compound] here?
The Ki was 0.049 ± 0.015 µM.

And the Ki [2]?
The Ki was 0.033 ± 0.02 µM.

What about the EC50 [3] of the same compound?
The EC50 was 0.0977 µM.

What about the “intrinsic activity (α) at MOR” value ([3]; ratio of Emax of ligand to that of the standard) of the same compound?
The value was 0.40 ± 0.020.

What about the “calcium mobilization in cells without DOR” value [4] of the same compound?
The value was “completely inactive”.

What about the “inhibition of [35S]GTPγS binding” value [5] of the same compound?
The value was 30%.

And the Ki [6]?
Its Ki is 7.5 ± 0.015 µM.
